{
  "source": "patent US20040254162A1",
  "about": "“Oxazolidinone derivatives as antimicrobials” (priority 2001, published 2004)",
  "key": {"[1]": {"test_system": "MRSE 879 adherent bacteria", "assay": "Sintered glass adherent bacteria model", "settings": "MRSE 879, sintered glass adherent bacteria model"}, "MRSE 879": {"test_system": "MRSE 879", "assay": "Broth MIC, MRSE 879", "type": "cell-based", "settings": "MRSE 879"}, "Ent. faecalis ATCC 29212": {"test_system": "Ent. faecalis ATCC 29212", "assay": "MIC, agar incorporation method", "settings": "agar incorporation"}, "[2]": {"assay": "Changes in MIC under different conditions: agar MIC", "type": "cell-based", "settings": "strain not given"}, "Clostridium camis": {"test_system": "Clostridium camis", "assay": "Agar dilution MIC, anaerobes", "type": "cell-based", "settings": "single isolates, anaerobic agar dilution"}, "Fusobacterium montiferum": {"test_system": "Fusobacterium montiferum", "assay": "Agar dilution MIC, anaerobes", "type": "cell-based", "settings": "single isolates, anaerobic agar dilution"}, "[3]": {"test_system": "Mycobacterium avium intracellulare", "assay": "Agar dilution method, mycobacteria", "type": "cell-based"}, "Fusobacterium necrogenes": {"test_system": "Fusobacterium necrogenes", "assay": "Agar dilution MIC, anaerobes", "type": "cell-based", "settings": "single isolate, anaerobic agar dilution"}, "S. pneum AB 34": {"test_system": "S. pneum AB 34", "assay": "MIC, agar incorporation method", "settings": "agar incorporation"}, "Eubacterium leutum": {"test_system": "Eubacterium leutum", "assay": "Agar dilution MIC, anaerobes", "type": "cell-based", "settings": "single isolates, anaerobic agar dilution"}, "anaerobic bacteria": {"test_system": "anaerobic bacteria", "assay": "Agar dilution method for anaerobic bacteria, summary", "type": "cell-based", "settings": "anaerobes"}, "Strep. pne. ATCC 6303": {"test_system": "Strep. pne. ATCC 6303", "assay": "MIC, agar incorporation method", "settings": "agar incorporation"}, "P. acnes": {"test_system": "P. acnes", "assay": "Agar dilution MIC, anaerobes", "type": "cell-based", "settings": "single isolates, anaerobic agar dilution"}, "MRSA 15187": {"test_system": "MRSA 15187", "assay": "MIC, agar incorporation method", "settings": "agar incorporation"}, "Prevotella intermedia": {"test_system": "Prevotella intermedia", "assay": "Agar dilution MIC, anaerobes", "type": "cell-based", "settings": "single isolates, anaerobic agar dilution"}, "[4]": {"test_system": "MRSA 1029/99 and MRSE 879/247", "assay": "Inhibition of biofilm (slime) production", "type": "cell-based", "settings": "trypticase soy broth with 2% glucose, overnight 37° C., safranin OD 544 nm", "procedure": "To study the effect of Compound No. 16 on the inhibition of biofilm production, the following study was carried out. […] Bacterial suspensions (in triplicate) were exposed to doubling dilution of antibiotics and incubated overnight at 37° C. with constant shaking (100 rpm). Next day, after aspirating the medium, biofilm was stained with safranin (0.1%) for 1 hour at room temperature, washed with distilled water, tapped dried and stain extracted into 200 μl of 0.2M NaoH and OD measured at 544 nm. Relative inhibition was determined by using the formula: […]"}, "MRSA 33": {"test_system": "MRSA 33", "assay": "MIC, agar incorporation method", "settings": "agar incorporation"}, "Prevotella bivia": {"test_system": "Prevotella bivia", "assay": "Agar dilution MIC, anaerobes", "type": "cell-based", "settings": "single isolate, anaerobic agar dilution"}, "[5]": {"test_system": "Mycobacterium tuberculosis"}, "[6]": {"test_system": "Peptostreptococcus tetradius", "assay": "Agar dilution MIC, anaerobes", "type": "cell-based", "settings": "single isolates, anaerobic agar dilution"}, "Clostridium difficile": {"test_system": "Clostridium difficile", "assay": "Agar dilution MIC, anaerobes", "type": "cell-based", "settings": "single isolates, anaerobic agar dilution"}, "VRE 6A (Ent. faecium 6A)": {"test_system": "VRE 6A (Ent. faecium 6A)", "assay": "MIC, agar incorporation method", "settings": "agar incorporation"}, "S. aureus ATCC 25923": {"test_system": "S. aureus ATCC 25923", "assay": "MIC, agar incorporation method", "settings": "agar incorporation"}, "Bacteroides fragilis": {"test_system": "Bacteroides fragilis", "assay": "Agar dilution MIC, anaerobes", "type": "cell-based", "settings": "single isolates, anaerobic agar dilution"}, "Clostridium perfringens": {"test_system": "Clostridium perfringens", "assay": "microbe, parasite or virus in culture", "type": "cell-based", "settings": "single isolates, anaerobic agar dilution"}, "[7]": {"test_system": "Porphyromonas asaccharolytica", "assay": "Agar dilution MIC, anaerobes", "type": "cell-based", "settings": "single isolate, anaerobic agar dilution"}, "Porphyromonas gingivalis": {"test_system": "Porphyromonas gingivalis", "assay": "Agar dilution MIC, anaerobes", "type": "cell-based", "settings": "single isolate, anaerobic agar dilution"}, "[8]": {"test_system": "Peptostreptococcus asaccharolyticus", "assay": "Agar dilution MIC, anaerobes", "type": "cell-based", "settings": "single isolates, anaerobic agar dilution"}, "Strep. pyog. ATCC 19615": {"test_system": "Strep. pyog. ATCC 19615", "assay": "MIC, agar incorporation method", "settings": "agar incorporation"}, "[9]": {"assay": "Changes in MIC under different conditions: broth MIC", "type": "cell-based", "settings": "strain not given"}},
  "note": "Where “and” joins values, the source holds several entries; their conditions need not be identical. Identical values can stand only once.",
  "data": [
    {"smiles": "CC(=O)NC[C@H]1CN(c2ccc(N3CCN(Cc4ccc([N+](=O)[O-])o4)CC3)c(F)c2)C(=O)O1.Cl", "note": "[Compound No. 16]", "values": [
      {"measurement": "concentration which would kill adherent bacteria", "setting": "[1]", "value": 2, "unit": "µg/mL"},
      {"measurement": "broth MIC", "setting": "MRSE 879", "value": 0.5, "unit": "µg/mL"},
      {"measurement": "MIC E. faecalis 29212", "setting": "Ent. faecalis ATCC 29212", "value": 2, "unit": "µg/mL"},
      {"measurement": "Agar MIC", "setting": "[2]", "value": 2, "unit": "µg/mL"},
      {"measurement": "MIC Clostridium camis", "setting": "Clostridium camis", "value": "0.03 µg/mL and 0.016 µg/mL"},
      {"measurement": "MIC Fusobacterium montiferum", "setting": "Fusobacterium montiferum", "value": 0.03, "unit": "µg/mL"},
      {"measurement": "MIC50", "setting": "[3]; Middlebrook 7H10 agar, 21 days", "value": 8, "unit": "µg/mL"},
      {"measurement": "MIC90", "setting": "[3]; Middlebrook 7H10 agar, 21 days", "value": 32, "unit": "µg/mL"},
      {"measurement": "G.M.", "setting": "[3]; geometric mean MIC", "value": 8.52, "unit": "µg/mL"},
      {"measurement": "MIC Fusobacterium necrogenes", "setting": "Fusobacterium necrogenes", "value": "<=.008 μg/ml"},
      {"measurement": "MIC S. pneum AB 34", "setting": "S. pneum AB 34", "value": 1, "unit": "µg/mL"},
      {"measurement": "MIC Eubacterium leutum", "setting": "Eubacterium leutum", "value": "<=.008 μg/ml"},
      {"measurement": "Geometric Mean", "setting": "anaerobic bacteria", "value": 0.037, "unit": "µg/mL"},
      {"measurement": "MIC Range", "setting": "anaerobic bacteria", "value": "0.004 to 1", "unit": "µg/mL"},
      {"measurement": "MIC50", "setting": "anaerobic bacteria; Wilkins Chalgren agar, 48 hour", "value": 0.032, "unit": "µg/mL"},
      {"measurement": "MIC90", "setting": "anaerobic bacteria; Wilkins Chalgren agar, 48 hour", "value": 0.25, "unit": "µg/mL"},
      {"measurement": "MIC S. pneum 6303", "setting": "Strep. pne. ATCC 6303", "value": 1, "unit": "µg/mL"},
      {"measurement": "MIC P. acnes", "setting": "P. acnes", "value": 1, "unit": "µg/mL"},
      {"measurement": "MIC MRSA 15187", "setting": "MRSA 15187", "value": 4, "unit": "µg/mL"},
      {"measurement": "MIC Prevotella intermedia", "setting": "Prevotella intermedia", "value": 0.016, "unit": "µg/mL"},
      {"measurement": "Formation of biofilm inhibition", "setting": "[4]", "value": "occurs at lower a concentration"},
      {"measurement": "MIC MRSA 33", "setting": "MRSA 33", "value": 4, "unit": "µg/mL"},
      {"measurement": "MIC Prevotella bivia", "setting": "Prevotella bivia", "value": 0.125, "unit": "µg/mL"},
      {"measurement": "MIC50", "setting": "[5]; Middlebrook 7H10 agar, 21 days", "value": 4, "unit": "µg/mL"},
      {"measurement": "MIC90", "setting": "[5]; Middlebrook 7H10 agar, 21 days", "value": 64, "unit": "µg/mL"},
      {"measurement": "G.M.", "setting": "[5]; geometric mean MIC", "value": 5.44, "unit": "µg/mL"},
      {"measurement": "MIC Peptostreptococcus tetradius", "setting": "[6]", "value": "<=.008 μg/ml"},
      {"measurement": "MIC Clostridium difficile", "setting": "Clostridium difficile", "value": 0.03, "unit": "µg/mL"},
      {"measurement": "MIC VRE 6A", "setting": "VRE 6A (Ent. faecium 6A)", "value": 4, "unit": "µg/mL"},
      {"measurement": "MIC S. aureus 25923", "setting": "S. aureus ATCC 25923", "value": 2, "unit": "µg/mL"},
      {"measurement": "MIC Bacteroides fragilis", "setting": "Bacteroides fragilis", "value": "0.03 µg/mL and 0.06 µg/mL"},
      {"measurement": "MIC Clostridium perfringens", "setting": "Clostridium perfringens", "value": 0.03, "unit": "µg/mL"},
      {"measurement": "MIC Porphyromonas asaccharolytica", "setting": "[7]", "value": "<=.008 μg/ml"},
      {"measurement": "MIC Porphyromonas gingivalis", "setting": "Porphyromonas gingivalis", "value": "<=.008 μg/ml"},
      {"measurement": "MIC Peptostreptococcus asaccharolyticus", "setting": "[8]", "value": "<=.008 μg/ml"},
      {"measurement": "MIC S. pyogenes 19615", "setting": "Strep. pyog. ATCC 19615", "value": 0.5, "unit": "µg/mL"},
      {"measurement": "Broth MIC +50% Sheep serum", "setting": "[9]; +50% sheep serum", "value": 2, "unit": "µg/mL"},
      {"measurement": "Broth MIC Normal MH broth", "setting": "[9]; normal MH broth", "value": 2, "unit": "µg/mL"}
    ]}
  ]
}
